# Test results from patent US12286437B2, “Cardiac sarcomere inhibitors” (Cytokinetics, Inc., priority 2021, dated 2025).
# Where two headings read alike, the source gives them in different places.
# Columns and labels:
# [1] = test system: bovine cardiac myofibrils; test: Myofibril assay (ATPase activity of skinned bovine cardiac myofibrils, PK/LDH-coupled); type: biochemical; conditions: inhibition of steady-state ATPase of bovine cardiac myofibrils; CaCl2 for 50% or 75% activation
# Method in brief: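 Steady-state ATPase of detergent-skinned bovine left-ventricular myofibrils (1 mg/mL), PK/LDH-coupled NADH read at 340 nm, in PIPES/MgCl2 buffer pH 6.8 with 50 μM ATP, 0.6 mM EGTA and CaCl2 set for 50% or 75% activation. Inhibition of activity measured.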
# CYP1A2 = target: T1, CYP1A2 (Homo sapiens, UniProt P05177); test: Time-dependent inhibition of CYP1A2 in human liver microsomes; type: in vitro ADME; conditions: for (% Activity NADPH T0)/(% Activity NADPH T30): fold change; for activity at 30 min, 25 µM / activity at 0 min, 25 µM / activity at 30 min, 50 µM / activity at 0 min, 50 µM: pooled human liver microsomes, human liver microsomes; for activity at 30 min, 25 µM / activity at 30 min, 50 µM: after 30 minutes incubation, read-out: % Activity NADPH T30; for activity at 0 min, 25 µM / activity at 0 min, 50 µM: time zero, read-out: % Activity NADPH T0
# T1 construct: Pooled human microsomes and selective CYP probe substrates were used; from tissue; host or cells: pooled human liver microsomes
# T1 sequence (P05177 1-516): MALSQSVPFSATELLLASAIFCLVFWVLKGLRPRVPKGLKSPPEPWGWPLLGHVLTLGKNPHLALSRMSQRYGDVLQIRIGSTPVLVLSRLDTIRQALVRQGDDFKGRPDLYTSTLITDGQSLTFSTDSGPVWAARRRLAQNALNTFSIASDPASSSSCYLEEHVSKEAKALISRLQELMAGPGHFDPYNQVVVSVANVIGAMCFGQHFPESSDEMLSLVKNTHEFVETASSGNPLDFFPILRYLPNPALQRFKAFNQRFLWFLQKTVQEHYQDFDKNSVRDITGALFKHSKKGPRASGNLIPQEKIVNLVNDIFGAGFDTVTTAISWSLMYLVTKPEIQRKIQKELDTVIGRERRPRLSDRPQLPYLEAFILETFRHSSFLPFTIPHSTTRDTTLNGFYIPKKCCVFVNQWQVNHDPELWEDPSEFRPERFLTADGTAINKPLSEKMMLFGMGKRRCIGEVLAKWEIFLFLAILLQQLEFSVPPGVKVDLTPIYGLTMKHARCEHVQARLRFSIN
# Procedure: (§1) An assessment of the time-dependent Inhibitory Potential of the test compounds against Principal Human Cytochrome P450 Isozymes using Human Liver Microsomes was also carried out using standard methods (Grimm et al, Drug Metab. Dispos., July; 37(7):1355-70. doi: 10.1124/dmd.109.026716, 2009). Pooled human microsomes and selective CYP probe substrates were used for in vitro assessment of test compounds at 25 and 50 μM as time-dependent inhibitors of […] human hepatic cytochrome P450 isozymes (CYP1A2, 2B6, 2C9, 2C19, 2D6, and 3A4). LC-MS/MS was used to quantify metabolite formation. The inhibition of each P450 enzyme in human liver microsomes was measured as the percentage decrease in the activity of marker metabolite formation as measured by LC-MS/MS compared to non-inhibited controls (=100% activity) at time zero and after 30 minutes incubation. The occurrence of any time dependent inhibition was then expressed as the fold change in enzyme activity at time zero relative to the activity after 30 minutes incubation.
# CYP2D6 = target: T2, CYP2D6 (Homo sapiens, UniProt P10635); test: Time-dependent inhibition of CYP2D6 in human liver microsomes; type: in vitro ADME; conditions: for (% Activity NADPH T0)/(% Activity NADPH T30): fold change; for activity at 30 min, 25 µM / activity at 0 min, 25 µM / activity at 30 min, 50 µM / activity at 0 min, 50 µM: pooled human liver microsomes, human liver microsomes; for activity at 30 min, 25 µM / activity at 30 min, 50 µM: after 30 minutes incubation, read-out: % Activity NADPH T30; for activity at 0 min, 25 µM / activity at 0 min, 50 µM: time zero, read-out: % Activity NADPH T0
# T2 construct: Pooled human microsomes and selective CYP probe substrates were used; from tissue; host or cells: pooled human liver microsomes
# Procedure: as §1
# CYP2B6 = target: T3, CYP2B6 (Homo sapiens, UniProt P20813); test: Time-dependent inhibition of CYP2B6 in human liver microsomes; type: in vitro ADME; conditions: for (% Activity NADPH T0)/(% Activity NADPH T30): fold change; for activity at 30 min, 25 µM / activity at 0 min, 25 µM / activity at 30 min, 50 µM / activity at 0 min, 50 µM: pooled human liver microsomes, human liver microsomes; for activity at 30 min, 25 µM / activity at 30 min, 50 µM: after 30 minutes incubation, read-out: % Activity NADPH T30; for activity at 0 min, 25 µM / activity at 0 min, 50 µM: time zero, read-out: % Activity NADPH T0
# T3 construct: Pooled human microsomes and selective CYP probe substrates were used; from tissue; host or cells: pooled human liver microsomes
# T3 sequence (P20813 1-491): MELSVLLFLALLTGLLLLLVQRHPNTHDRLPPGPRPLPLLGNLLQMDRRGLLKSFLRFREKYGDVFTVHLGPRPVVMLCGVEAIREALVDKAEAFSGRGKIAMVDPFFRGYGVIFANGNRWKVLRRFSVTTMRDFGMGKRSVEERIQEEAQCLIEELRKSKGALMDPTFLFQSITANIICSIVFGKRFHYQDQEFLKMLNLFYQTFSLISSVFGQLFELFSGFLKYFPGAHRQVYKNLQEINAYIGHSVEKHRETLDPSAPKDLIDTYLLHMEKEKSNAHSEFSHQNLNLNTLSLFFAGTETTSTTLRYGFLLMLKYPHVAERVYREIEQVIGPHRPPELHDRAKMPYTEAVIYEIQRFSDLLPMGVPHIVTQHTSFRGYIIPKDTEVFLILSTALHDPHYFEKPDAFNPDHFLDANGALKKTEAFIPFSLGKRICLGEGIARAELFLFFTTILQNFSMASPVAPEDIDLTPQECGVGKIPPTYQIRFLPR
# Procedure: as §1
# [2] = Monkey cassette dosing pharmacokinetics; type: in vivo; conditions: IV; for clearance / Vd: male, plasma; for Vd: read-out: Vss
# CYP3A4 = target: T4, CYP3A4 (Homo sapiens, UniProt P08684); test: Time-dependent inhibition of CYP3A4 in human liver microsomes (testosterone and midazolam probes); type: in vitro ADME; conditions: for (% Activity NADPH T0)/(% Activity NADPH T30): fold change; for activity at 30 min, 25 µM / activity at 30 min, 50 µM: human, after 30 minutes incubation, read-out: % Activity NADPH T30; for activity at 30 min, 25 µM / activity at 30 min, 50 µM / activity at 0 min, 25 µM / activity at 0 min, 50 µM: pooled human liver microsomes; for activity at 0 min, 25 µM / activity at 0 min, 50 µM: human liver microsomes, time zero, read-out: % Activity NADPH T0
# T4 construct: Pooled human microsomes and selective CYP probe substrates were used; from tissue; host or cells: pooled human liver microsomes
# Method in brief: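 Pooled human liver microsomes with selective CYP probe substrates were exposed to compounds at 25 and 50 μM. Marker metabolite formation was quantified by LC-MS/MS as % of uninhibited control at time zero and after 30 min incubation. Time-dependent inhibition is expressed as the fold change in activity between time zero and 30 min.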
# [3] = CYP3A4-M (midazolam probe substrate), 25 μM
# [4] = CYP3A4-M (midazolam probe substrate), 50 μM
# [5] = CYP3A4-T (testosterone probe substrate), 25 μM
# [6] = CYP3A4-T (testosterone probe substrate), 50 μM
# T4 sequence (P08684 whole entry): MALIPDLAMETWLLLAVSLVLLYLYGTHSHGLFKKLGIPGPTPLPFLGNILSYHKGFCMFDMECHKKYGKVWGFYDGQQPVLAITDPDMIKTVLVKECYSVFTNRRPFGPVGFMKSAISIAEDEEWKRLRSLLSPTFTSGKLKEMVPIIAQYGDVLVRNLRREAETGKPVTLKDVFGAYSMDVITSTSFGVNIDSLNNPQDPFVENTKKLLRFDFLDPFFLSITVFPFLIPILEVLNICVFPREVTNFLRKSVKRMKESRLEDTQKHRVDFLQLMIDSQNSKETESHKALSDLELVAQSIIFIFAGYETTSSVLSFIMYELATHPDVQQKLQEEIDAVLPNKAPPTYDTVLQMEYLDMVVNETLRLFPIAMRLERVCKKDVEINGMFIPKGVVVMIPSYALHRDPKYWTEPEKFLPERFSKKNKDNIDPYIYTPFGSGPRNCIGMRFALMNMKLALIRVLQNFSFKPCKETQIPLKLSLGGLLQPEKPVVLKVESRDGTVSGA
# T2 sequence (P10635 whole entry): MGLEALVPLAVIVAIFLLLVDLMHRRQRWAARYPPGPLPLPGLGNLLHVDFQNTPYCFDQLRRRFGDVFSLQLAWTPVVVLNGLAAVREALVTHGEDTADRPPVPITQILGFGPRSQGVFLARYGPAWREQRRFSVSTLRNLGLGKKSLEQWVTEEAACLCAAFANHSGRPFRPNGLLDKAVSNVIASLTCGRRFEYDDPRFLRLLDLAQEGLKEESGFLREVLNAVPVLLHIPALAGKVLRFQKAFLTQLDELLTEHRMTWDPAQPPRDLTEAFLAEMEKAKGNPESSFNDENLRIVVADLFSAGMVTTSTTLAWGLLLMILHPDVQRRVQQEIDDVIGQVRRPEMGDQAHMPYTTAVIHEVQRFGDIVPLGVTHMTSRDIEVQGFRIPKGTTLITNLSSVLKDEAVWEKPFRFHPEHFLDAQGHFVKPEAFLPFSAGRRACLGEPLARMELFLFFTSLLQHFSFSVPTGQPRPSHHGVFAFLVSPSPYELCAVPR
CDMF IC15 [1] [nM],"(% Activity NADPH T0)/(% Activity NADPH T30) (CYP1A2; CYP1A2, 25 μM)","(% Activity NADPH T0)/(% Activity NADPH T30) (CYP1A2; CYP1A2, 50 μM)","activity at 30 min, 25 µM (CYP1A2; CYP1A2, 25 μM) [%]","activity at 0 min, 25 µM (CYP1A2; CYP1A2, 25 μM) [%]","activity at 30 min, 50 µM (CYP1A2; CYP1A2, 50 μM) [%]","activity at 0 min, 50 µM (CYP1A2; CYP1A2, 50 μM) [%]","(% Activity NADPH T0)/(% Activity NADPH T30) (CYP2D6; CYP2D6, 25 μM)","(% Activity NADPH T0)/(% Activity NADPH T30) (CYP2D6; CYP2D6, 50 μM)","activity at 30 min, 25 µM (CYP2D6; CYP2D6, 25 μM) [%]","activity at 0 min, 25 µM (CYP2D6; CYP2D6, 25 μM) [%]","activity at 30 min, 50 µM (CYP2D6; CYP2D6, 50 μM) [%]","activity at 0 min, 50 µM (CYP2D6; CYP2D6, 50 μM) [%]","(% Activity NADPH T0)/(% Activity NADPH T30) (CYP2B6; CYP2B6, 25 μM)","(% Activity NADPH T0)/(% Activity NADPH T30) (CYP2B6; CYP2B6, 50 μM)","activity at 30 min, 25 µM (CYP2B6; CYP2B6, 25 μM) [%]","activity at 0 min, 25 µM (CYP2B6; CYP2B6, 25 μM) [%]","activity at 30 min, 50 µM (CYP2B6; CYP2B6, 50 μM) [%]","activity at 0 min, 50 µM (CYP2B6; CYP2B6, 50 μM) [%]",t l/2 [2] [h],SMILES,also measured
2000,0.9,0.8,99,88,110,92,1.0,1.4,100,96,72,98,0.9,1.1,116,102,81,90,1.83,"CC(C)N1CC(=O)N(Cc2ccc(C(F)(F)F)cc2)C2(CN(c3cccnn3)C2)C1=O [Compound 13, 8-isopropyl-2-(pyridazin-3-yl)-5-(4-(trifluoromethyl)benzyl)-2,5,8-triazaspiro[3.5]nonane-6,9-dione]","clearance [2]: 21.4 mL/min/kg; Vd [2]: 3.15 L/kg; (% Activity NADPH T0)/(% Activity NADPH T30) (CYP3A4; [3]): 1.0; (% Activity NADPH T0)/(% Activity NADPH T30) (CYP3A4; [4]): 0.7; (% Activity NADPH T0)/(% Activity NADPH T30) (CYP3A4; [5]): 1.0; (% Activity NADPH T0)/(% Activity NADPH T30) (CYP3A4; [6]): 0.9; activity at 30 min, 25 µM (CYP3A4; [3]): 88%; activity at 30 min, 50 µM (CYP3A4; [4]): 97%; activity at 30 min, 25 µM (CYP3A4; [5]): 77%; activity at 30 min, 50 µM (CYP3A4; [6]): 65%; activity at 0 min, 25 µM (CYP3A4; [3]): 87%; activity at 0 min, 50 µM (CYP3A4; [4]): 72%; activity at 0 min, 25 µM (CYP3A4; [5]): 74%; activity at 0 min, 50 µM (CYP3A4; [6]): 56%"
1200,0.9,1.0,99,85,90,92,1.0,1.1,105,103,91,104,0.8,0.9,103,80,83,76,8.04,"C[C@H]1CC[C@H](N2CC(=O)N(Cc3ccc(Cl)cc3)C3(CN(C(N)=O)C3)C2=O)CC1 [Compound 18, 5-(4-chlorobenzyl)-8-((1r,4r)-4-methylcyclohexyl)-6,9-dioxo-2,5,8-triazaspiro[3.5]nonane-2-carboxamide]","clearance [2]: 12.5 mL/min/kg; Vd [2]: 10.2 L/kg; (% Activity NADPH T0)/(% Activity NADPH T30) (CYP3A4; [3]): 1.8; (% Activity NADPH T0)/(% Activity NADPH T30) (CYP3A4; [4]): 1.2; (% Activity NADPH T0)/(% Activity NADPH T30) (CYP3A4; [5]): 1.2; (% Activity NADPH T0)/(% Activity NADPH T30) (CYP3A4; [6]): 1.1; activity at 30 min, 25 µM (CYP3A4; [3]): 71%; activity at 30 min, 50 µM (CYP3A4; [4]): 102%; activity at 30 min, 25 µM (CYP3A4; [5]): 85%; activity at 30 min, 50 µM (CYP3A4; [6]): 75%; activity at 0 min, 25 µM (CYP3A4; [3]): 125%; activity at 0 min, 50 µM (CYP3A4; [4]): 126%; activity at 0 min, 25 µM (CYP3A4; [5]): 100%; activity at 0 min, 50 µM (CYP3A4; [6]): 85%"
